Like-named read-outs stand apart in the source and are kept apart here.
Columns and labels:
glucagon receptor (GCGR) = biological target: T1, glucagon receptor (GCGR) (Homo sapiens, UniProt P47871); assay: I125-glucagon binding assay (competition, GCGR membrane fractions)
T1 construct: expressed in transfected cells; host or cells: CHO-K1 cells overexpressing GCGR (membrane fractions)
Outline: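 Membranes from CHO-K1 cells overexpressing GCGR, 7.5 μg/well in 50 mM Tris pH 7.4 with 0.5% BSA, were preincubated 5 min with serially diluted compounds, then given 0.0625 nM final I^125-glucagon for 30 min at 25° C. Bound label was filtered on PEI-coated GF/B and counted; IC50 by non-linear regression.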

[1] = biological target: T2, glucagon receptor (GCGR) overexpressed CHO-K1 cells or human primary hepatocytes (Homo sapiens, UniProt P47871); assay: Glucagon cAMP inhibition assay (Cisbio cAMP Dynamic 2 HTRF); type: cell-based
T2 construct: expressed in transfected cells; host or cells: GCGR overexpressed CHO-K1 cells or human primary hepatocytes (endogenous receptor)
T2 sequence (P47871 26-477): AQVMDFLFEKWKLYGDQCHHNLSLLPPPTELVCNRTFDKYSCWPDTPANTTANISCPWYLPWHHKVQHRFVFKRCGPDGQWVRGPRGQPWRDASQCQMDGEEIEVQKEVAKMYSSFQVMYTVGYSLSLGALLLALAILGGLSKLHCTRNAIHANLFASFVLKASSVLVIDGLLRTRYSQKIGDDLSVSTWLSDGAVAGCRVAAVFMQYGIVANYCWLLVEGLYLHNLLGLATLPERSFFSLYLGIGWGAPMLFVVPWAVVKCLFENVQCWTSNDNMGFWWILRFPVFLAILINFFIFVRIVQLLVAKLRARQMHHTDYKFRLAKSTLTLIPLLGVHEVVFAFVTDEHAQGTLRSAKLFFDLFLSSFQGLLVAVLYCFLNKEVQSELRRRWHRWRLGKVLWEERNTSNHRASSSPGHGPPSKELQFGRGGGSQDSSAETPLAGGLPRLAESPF
Outline: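 GCGR-overexpressing CHO-K1 cells or human primary hepatocytes in HBSS with 0.1% BSA and 800 nM IBMX, pre-incubated 30 min with serially diluted compounds (1% DMSO final), then stimulated 30 min at room temperature with glucagon at its EC50. cAMP measured by HTRF after 60 min lysis; IC50 by non-linear regression.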

[2] = competition with I125-glucagon 0.0625 nM, membrane fractions of GCGR overexpressed CHO-K1 cells
[3] = inhibition of glucagon (EC50 concentration) induced cAMP production

T1 sequence (P47871 26-477): as above

Compound	IC50 (glucagon receptor (GCGR)) [µM]	IC50 cAMP [1] [µM]	IC50 (glucagon receptor (GCGR); [2]) [µM]	IC50 cAMP [1, 3] [µM]	further results
CC(C)C[C@@H](COc1ccc(-c2ccc(C(F)(F)F)cc2)cn1)Nc1ccc(C(=O)NCCC(=O)O)cc1 [Compound 15-11, (S)-3-(4-((4-methyl-1-((5-(4-(trifluoromethyl)phenyl)pyridin-2-yl)oxy)pentan-2-yl)amino)benzamido)propanoic Acid]	0.21	0.2847	–	–	–
CC(C)[C@@H](COc1cc(F)c(-c2ccc(C(F)(F)F)cc2F)c(F)c1)Nc1ccc(C(=O)NCCC(=O)O)cc1 [Compound 7-4, (S)-3-(4-((3-methyl-1-((2,2′,6-trifluoro-4′-(trifluoromethyl)-[1,1′-biphenyl]-4-yl)oxy)butan-2-yl)amino)benzamido)propanoic Acid]	–	–	0.182	0.165	–
CCOC(=O)CCNC(=O)c1ccc(N[C@H](COc2ccc(-c3cc4ccccc4o3)cc2)C(C)C)cc1 [Compound 1-1, Ethyl(S)-3-(4-((1-(4-(benzofuran-2-yl)phenoxy)-3-methylbutan-2-yl)amino)benzamido) propanoate]	–	–	0.803	1.177	–
CC(C)C[C@@H](COc1ccc(-c2cc3ccccc3o2)c(F)c1)Nc1ccc(C(=O)NCCC(=O)O)cc1 [Compound 8-20, (S)-3-(4-((1-(4-(benzofuran-2-yl)-3-fluorophenoxy)-4-methylpentan-2-yl)amino)benzamido)propanoic Acid]	–	–	0.083	0.234	–
CC[C@H](C)[C@@H](COc1ccc(-c2ccc(Cl)cc2Cl)nc1)Nc1ccc(C(=O)NCCC(=O)O)cc1 [Compound 10-15, 3-(4-(((2S,3S)-1-((6-(2,4-dichlorophenyl)pyridin-3-yl)oxy)-3-methylpentan-2-yl)amino)benzamido)propanoic Acid]	–	–	0.179	0.301	–
O=C(O)CCNC(=O)c1ccc(N[C@H](COc2ccc(-c3cc4ccccc4o3)cn2)c2ccccc2)cc1 [Compound 15-5, (S)-3-(4-((2-((5-(benzofuran-2-yl)pyridin-2-yl)oxy)-1-phenylethyl)amino)benzamido)propanoic Acid]	0.706	2.067	–	–	–
CC(C)[C@@H](COc1ccc(-c2cc3ccccc3o2)nn1)Nc1ccc(C(=O)NCCC(=O)O)cc1 [Compound 17-8, (S)-3-(4-((1-((6-(benzofuran-2-yl)pyridazin-3-yl)oxy)-3-methylbutan-2-yl)amino)benzamido)propanoic Acid]	–	–	2.04	10.741	–
CCCC[C@@H](COc1ccc(-c2ccc(C(F)(F)F)cc2F)c(F)c1)Nc1ccc(C(=O)NCCC(=O)O)cc1 [Compound 8-17, (S)-3-(4-((1-((2,2′-difluoro-4′-(trifluoromethyl)-[1,1′-biphenyl]-4-yl)oxy)hexan-2-yl)amino)benzamido)propanoic Acid]	–	–	0.308	0.2276	–
O=C(NCCS(=O)(=O)O)c1ccc(N[C@@H](Cc2ccccc2)C(=O)Nc2ccc(-c3cc4ccccc4o3)cc2)cc1 [Compound 23-24, (S)-2-(4-((1-((4-(benzofuran-2-yl)phenyl)amino)-1-oxo-3-phenylpropan-2-yl)amino)benzamido)ethane-1-sulfonic Acid]	–	–	–	–	IC50 (glucagon receptor (GCGR); uM): > 10 µM; IC50 cAMP ([1]; uM): >10 µM
CC(C)[C@@H](COc1ccc(-c2nc3ccccc3s2)cc1)Nc1ccc(C(=O)NCCC(=O)O)cc1 [Compound 1-32, (S)-3-(4-((1-(4-(benzo[d]thiazol-2-yl)phenoxy)-3-methylbutan-2-yl)amino)benzamido)propanoic Acid]	–	–	0.057	0.152	–
CC(C)[C@@H](COc1nnc(-c2ccc(Cl)cc2Cl)o1)Nc1ccc(C(=O)NCCC(=O)O)cc1 [Compound 22-14, (S)-3-(4-((1-((5-(2,4-dichlorophenyl)-1,3,4-oxadiazol-2-yl)oxy)-3-methylbutan-2-yl)amino)benzamido)propanoic Acid]	> 30	>30	–	–	–
Cc1cc(OC[C@@H](Cc2ccccc2)Nc2ccc(C(=O)NCCC(=O)O)cc2)cc(C)c1-c1ccc(C(F)(F)F)cc1 [Compound 2-1, (R)-3-(4-((1-((2,6-dimethyl-4′-(trifluoromethyl)-[1,1′-biphenyl]-4-yl)oxy)-3-phenylpropan-2-yl)amino)benzamido)propanoic Acid]	–	–	0.266	0.3229	–
CCC(C)[C@@H](COc1cnc(-c2ccc(Cl)cc2Cl)nc1)Nc1ccc(C(=O)NCCC(=O)O)cc1 (stereo partly drawn) [Compound 12-10, 3-(4-(((2S)-1-((2-(2,4-dichlorophenyl)pyrimidin-5-yl)oxy)-3-methylpentan-2-yl)amino)benzamido)propanoic Acid]	–	–	0.337	0.89	–
CC[C@H](C)[C@@H](COc1nnc(-c2ccc(C(F)(F)F)cc2F)o1)Nc1ccc(C(=O)NCCC(=O)O)cc1 [Compound 22-1, 3-(4-(((2S,3S)-1-((5-(2-fluoro-4-(trifluoromethyl)phenyl)-1,3,4-oxadiazol-2-yl)oxy)-3-methylpentan-2-yl)amino)benzamido)propanoic Acid]	0.062	>30	–	–	–
CC(C)[C@@H](COc1ccc(-c2ccc(C(F)(F)F)cc2F)c(F)c1)Nc1ccc(C(=O)NCCS(=O)(=O)O)cc1 [Compound 8-2, (S)-2-(4-((1-((2,2′-difluoro-4′-(trifluoromethyl)-[1,1′-biphenyl]-4-yl)oxy)-3-methylbutan-2-yl)amino)benzamido)ethane-1-sulfonic Acid]	–	–	1.71	12.144	–
CCCOC[C@H](Cc1ccc(-c2ccc(OC(F)(F)F)cc2)cc1)Nc1ccc(C(=O)NCCC(=O)O)cc1 [Compound 19-24, (S)-3-(4-((1-propoxy-3-(4′-(trifluoromethoxy)-[1,1′-biphenyl]-4-yl)propan-2-yl)amino)benzamido)propanoic Acid]	0.512	0.6304	–	–	–
CC(C)[C@@H](COc1ccc(-c2ccc(C(F)(F)F)cc2Cl)c(Cl)c1)Nc1ccc(C(=O)NCc2nnn[nH]2)cc1 [Compound 3-3, (S)—N-((1H-tetrazol-5-yl)methyl)-4-((1-((2,2′-dichloro-4′-(trifluoromethyl)-[1,1′-biphenyl]-4-yl)oxy)-3-methylbutan-2-yl)amino)benzamide]	–	–	0.086	1.25	–
CC(C)C[C@H](Nc1ccc(C(=O)NCCC(=O)O)cc1)C(=O)Nc1ccc(-c2cc3ccccc3[nH]2)cc1 [Compound 23-29, (S)-3-(4-((1-((4-(1H-indol-2-yl)phenyl)amino)-4-methyl-1-oxopentan-2-yl)amino)benzamido)propanoic Acid]	0.141	–	–	–	IC50 cAMP ([1]; uM): >10 µM
COc1cc(OC[C@@H](Nc2ccc(C(=O)NCCC(=O)O)cc2)C(C)C)ccc1-c1ccc(Cl)cc1Cl [Compound 13-7, (S)-3-(4-((1-((2′,4′-dichloro-2-methoxy-[1,1′-biphenyl]-4-yl)oxy)-3-methylbutan-2-yl)amino)benzamido)propanoic Acid]	–	–	0.095	0.139	–
CC(C)[C@@H](COc1nnc(-c2ccc(C(C)(C)C)cc2)o1)Nc1ccc(C(=O)NCCC(=O)O)cc1 [Compound 22-16, (S)-3-(4-((1-((5-(4-(tert-butyl)phenyl)-1,3,4-oxadiazol-2-yl)oxy)-3-methylbutan-2-yl)amino)benzamido)propanoic Acid]	> 30	>30	–	–	–
CCCOC[C@H](Cc1ccc(-c2ccc(C(F)(F)F)cc2)cc1)Nc1ccc(C(=O)NCCC(=O)O)cc1 [Compound 19-22, (S)-3-(4-((1-propoxy-3-(4′-(trifluoromethyl)-[1,1′-biphenyl]-4-yl)propan-2-yl)amino)benzamido)propanoic Acid]	0.745	0.9865	–	–	–
CCOC(=O)CCNC(=O)c1ccc(N[C@H](Cc2ccc(-c3ccc(Cl)cc3Cl)cc2)C(=O)Nc2ccc(C(F)(F)F)cc2)cc1 [Compound 24-17, Ethyl (R)-3-(4-((3-(2′,4′-dichloro-[1,1′-biphenyl]-4-yl)-1-oxo-1-((4-(trifluoromethyl)phenyl)amino)propan-2-yl)amino)benzamido)propanoate]	–	0.1671	–	–	IC50 (glucagon receptor (GCGR); uM): > 30 µM
CC(C)[C@@H](COc1ccc(-c2ccc(C(F)(F)F)cc2Cl)c(Cl)c1)Nc1ccc(C(=O)NC[C@@H](O)C(=O)O)cc1 [Compound 3-2, (R)-3-(4-(((S)-1-((2,2′-dichloro-4′-(trifluoromethyl)-[1,1′-biphenyl]-4-yl)oxy)-3-methylbutan-2-yl)amino)benzamido)-2-hydroxypropanoic Acid]	–	–	0.135	>10	–
CCCC[C@@H](COc1ccc(-c2cc3ccccc3o2)nc1)Nc1ccc(C(=O)NCCC(=O)O)cc1 [Compound 10-12, (S)-3-(4-((1-((6-(benzofuran-2-yl)pyridin-3-yl)oxy)hexan-2-yl)amino)benzamido)propanoic Acid]	–	–	0.181	0.7916	–
O=C(O)CCNC(=O)c1ccc(N[C@@H](Cc2ccccc2)C(=O)Nc2ccc(-c3ccc(Cl)cc3Cl)cc2)cc1 [Compound 23-2, (S)-3-(4-((1-((2′,4′-dichloro-[1,1′-biphenyl]-4-yl)amino)-1-oxo-3-phenylpropan-2-yl)amino)benzamido)propanoic Acid]	0.462	5.2	–	–	–
CC(C)[C@H](COc1ccc(-c2nc3ccccc3s2)cc1)Nc1ccc(C(=O)NCCC(=O)O)cc1 [Compound 1-52, (R)-3-(4-((1-(4-(benzo[d]thiazol-2-yl)phenoxy)-3-methylbutan-2-yl)amino)benzamido)propanoic Acid]	–	–	0.089	0.377	–

Source: US11384060B2, “Amide compounds and use thereof” (ALPHALA CO., LTD., priority 2017, dated 2022)
